Assay results as given in US20100254965A1, “Adenosine Signaling in Diagnosis, Treatment, and Prevention of Priapism and Erectile Dysfunction” (BOARD OF REGENTS ,THE UNIVERSITY OF TEXAS SYSTEM, priority 2006, published 2010).
“Also recorded” adds a separate entry of the source.

Key:
[1] = tested on: corpus cavernosal strips (CCS); assay: cGMP production in CCS (penile organ culture) in response to adenosine; format: cell-based, mouse
Method: (§1) FIG. 18. Adenosine stimulated both cAMP and cGMP induction in corpus cavernosal smooth muscle cells (CCSM) via A2BR activation. (a) Adenosine receptor expression profile in purified primary CCSM. CCSM were purified from adult mouse penes. […] (b) CCSM were isolated and cultured from mouse penes. The cells were switched to serum-free medium and treated with different concentrations of adenosine with or without A2BR antagonist (MRS1706-10 μM), A2AR antagonist (ZM241385-50 nM) or A2AR agonist (CGS-21680-10 μM) alone for 10 min. Then cellular extracts were collected and cAMP levels were measured using an ELISA kit. […] After 10 min treatment, the cellular extracts were collected and cAMP levels were measured by using a commercial enzyme immunoassay kit (Amersham Pharmacia). […] 10 min after treatment, cellular extracts were collected and cGMP levels were measured by using a commercial enzyme immunoassay kit (Amersham Pharmacia). Data are expressed as mean±SE. *p<0.05, adenosine treated versus the control; **p<0.05, adenosine treated with MRS1706 versus the adenosine treated; ***p<0.05, CCS of A2BR-deficient mice treated with adenosine versus the CCS of wild type mice treated with adenosine. […] After 10 min treatment, the cellular extracts were collected and cAMP levels were measured by using a commercial enzyme immunoassay kit (Amersham Pharmacia). […]

CCS and CCSM = assay: Phenylephrine-induced myosin light chain (MLC) phosphorylation, western blot; format: cell-based, mouse; conditions: intact penile organ culture and CCSM, PE 10 μM, adenosine 100 μM
Method: as §1

[2] = tested on: multiple animal models, including humans; conditions: intracavernous injection, multiple animal models, including humans; cited from earlier work

With `Nc1ncnc2c1ncn2[C@@H]1O[C@H](CO)[C@@H](O)[C@H]1O` [adenosine] the cGMP production ([1]; CCS of A2BR-deficient mice) was “absent”, the cGMP production ([1]; wild type penile organ culture (CCS)) was “can increase cGMP production; also recorded: induced by adenosine in a dosage-dependent manner” and the “PE-mediated MLC phosphorylation” value (CCS and CCSM) was “decreased PE-mediated MLC phosphorylation”. For the same compound, the “tumescence and penile erection” value [2] was “resulted in tumescence and penile erection”.
